The values that follow come from patent US11466032B2, “Cytotoxic agents” (FEMTOGENIX LIMITED, priority 2017, dated 2022).

One may read the IC50 as the concentration needed to halve the response being measured. Lower therefore signals higher potency.

Assay [1] has as its system fluorescently labelled DNA duplexes. Description: FRET DNA melting. In kind it is binding. On the procedure: FRET DNA Melting FRET DNA melting studies were undertaken on 26 and 34 using a number of fluorescently labelled sequences. The sequences (FIG. 10) were designed to provide additional evidence that 26 and 34 can form inter- and intrastrand cross-links at the site 5′-XYWWYWYX-3′.
The short duplexes used in this FRET study are relatively unstable in the duplex form with a melting temperature below 30° C. so that, in the absence of ligand, a large part of the melting occurs below the starting temperature of the experiment.
Oligonucleotides were obtained from ATDbio (Southampton, UK) in lyophilised form. They were labelled with a fluorophore molecule (F=fluorescein) at the 5′-end and a quencher molecule (Q=dabcyl) at the 3′-end of the complementary strand. Each oligonucleotide was dissolved in distilled H2O to form stock solutions of 100 μM. Working solutions of 5 μM were prepared by diluting the stock solution with distilled H2O.
The following buffers were used: 250 mM phosphate buffer pH 7.4 (consisting of sodium dihydrogen phosphate and sodium phosphate diluted in distilled H2O) and 5 M sodium chloride buffer. All buffers and distilled H2O were filtered through a […] filter prior to use.
The reaction mixture was comprised of 4 μL of 250 mM phosphate buffer (final concentration of 50 mM), 4 μL flourophor and 4 μL quencher molecule of the appropriate oligonucleotide for a final concentration of 0.2 μM, 4 μL 5 M sodium chloride (final concentration of 1 M NaCl), and 4 μL of distilled H2O. This mixture was heated in an Eppendorf tube at 90° C. for 1 min and slowly cooled down to room temperature. This process was carried out to anneal the single strands to double-stranded DNA. Following this, 4 μL of the ligand was added in the desired concentration and the mixture incubated overnight either at room temperature or 4° C. […] This mixture was analysed without prior annealing.
Fluorescence melting profiles were measured using a Roche LightCycler using a total reaction volume of 20 μL. […] Annealing steps and melting steps were all recorded and changes in fluorescence were measured at 520 nm. […]

Another assay has as its system SW48. In words: MTT cytotoxicity assay, 72 hour incubation. The conditions noted are these: Homo sapiens, SW48, 3 runs. In kind it is cell-based. On the procedure:
(§1) The cytotoxicity of compounds 26, 34, 50,58 and 68 were evaluated in a variety of cell lines using the standard MTT assay for a 72 hour incubation period (Table 1).
(§2) Tumor cell lines were maintained in RPMI1640 medium supplemented with 10% heat-inactivated fetal bovine serum, 2 mM L-glutamine and 1 mM sodium pyruvate. 1800 cells per well were seeded in a volume of 180 μl in a 96-well flat bottom polystyrene plate. The cells were allowed to adhere overnight at 37° C. in a CO2 incubator. Ligands were initially formulated in DMSO, and stocks stored at −80° C. They were then further formulated at lox concentration in RPMI1640 medium. 20 ul of diluted samples were added into each treatment well. On each plate, blank wells with no cells, and untreated wells containing cells, were included. Plates were then cultured at 37° C. in a CO2 incubator for 72 hrs. Cytotoxicity was evaluated using a tetrazolium salt-based assay, the MT assay. After 72 hours, the supernatant was removed from each well and 200 μl of a sterile filtered 500 μg/ml MT solution in water added to each well. The plates were then incubated at 37° C. in a CO2 incubator for 4 hrs. The supernatant was then removed and the formazan crystals formed solubilized by adding 150 μl of DMSO to each well. The plate was then read on a plate reader at 540 nm, and percentage cell survival calculated as follows: ((mean absorbance treated wells at concentration x—mean absorbance blank wells)÷(mean absorbance untreated wells at concentration x—mean absorbance blank wells))×100. Data were plotted as concentration in nM vs. % cell survival in Microsoft Excel, and IC50 values (concentration where cell survival is reduced by a half) were determined from the graph.
For orientation: Tetrazolium dyes change colour on reduction, which living cells bring about.

For the next assay, the system named is ZR 75-1. Description: MTT cytotoxicity assay, 72 hour incubation. The class given is cell-based. To be noted: Homo sapiens, 3 runs. On the procedure:
as §1, §2

The next assay concerns MCF-7. In words: MTT cytotoxicity assay, 72 hour incubation. In kind it is cell-based. The conditions noted are these: Homo sapiens, MCF7, 3 runs. The protocol:
as §1, §2

In the next assay the test system is SK-BR-3. In words: MTT cytotoxicity assay, 72 hour incubation. In kind it is cell-based. The conditions noted are these: Homo sapiens, 3 runs. The protocol:
as §1, §2

The subject of another assay is SW 620. Description: MTT cytotoxicity assay, 72 hour incubation. The class given is cell-based. To be noted: Homo sapiens, SW-620, 3 runs. The protocol: as §1, §2

The structures appear in SMILES notation.

For `CNS(=O)(=O)c1ccc(C2=CCN3C(=O)c4cc(OC)c(OCc5cccc(COc6cc7c(cc6OC)C(=O)N6CC=C(c8ccc(S(=O)(=O)NC)cc8)C[C@H]6C=N7)n5)cc4N=C[C@@H]3C2)cc1` [Compound 34, 4,4′-((6aS,6a′S)-((Pyridine-2,6-diylbis(methylene))bis(oxy))bis(2-methoxy-12-oxo-6a,7,10,12-tetrahydrobenzo[e]pyrido[1,2-α][1,4]diazepine-3,8-diyl))bis(N-methylbenzenesulfonamide)], the “Tm of duplex with ligand” value in assay [1] (5′-AAAAAAGAGAACAAAAAA-3′ (Seq 23), interstrand cross-link) is about 71 °C; in assay [1] (AAAAAAGAGAGAAAAAA-3′ (Seq 20), intrastrand cross-link), 66 °C. In addition, in assay [1] (5′-AAAAAAGATCAAAAAA-3′ (Seq 12), traditional PBD binding site), the stabilisation of duplex result was “limited stabilisation”. Further, the IC50 in the assay on SW48 came out at 0.0077 nM; in the assay with ZR 75-1, 0.159 nM; in the assay on MCF-7 it was 0.057 nM; in the assay with SK-BR-3, 0.041 nM; in the assay with SW 620, 0.325 nM.
